What all share (type): functional, cell-based
In assay [1] the test system is PC-9. The assay is described as follows: Anti-proliferative activity against human PC-9 cells assessed as reduction in cell proliferation incubated for 72 hrs by MTT assay. As to conditions: PC-9, 72 h. (Tetrazolium assays rely on reduction of a dye to a coloured formazan, in cell work by metabolically active cells.)
Assay [2] deals with A549. The assay is described as follows: Anti-proliferative activity against human A549 cells assessed as reduction in cell proliferation incubated for 72 hrs by MTT assay. As to conditions: A549, 72 h.
The subject of assay [3] is NCI-H1975. Description: Anti-proliferative activity against human NCI-H1975 cells assessed as reduction in cell proliferation incubated for 72 hrs by MTT assay. As to conditions: NCI-H1975, 72 h.

The source of these data is ChEMBL document CHEMBL5113409, “Design and synthesis of proteolysis targeting chimeras (PROTACs) as an EGFR degrader based on CO-1686” (Eur J Med Chem, 2022).

Regarding `C=CC(=O)Nc1cccc(Nc2nc(Nc3ccc(N4CCN(C(=O)CCCCCCCCCCCCC(=O)Nc5cccc6c5C(=O)N(C5CCC(=O)NC5=O)C6=O)CC4)cc3OC)ncc2C(F)(F)F)c1` (configuration not stated), the IC50 in assay [1] was 46.5 µM; in assay [2], above 100 µM; in assay [3] it was 62 µM.

As for `C=CC(=O)Nc1cccc(Nc2nc(Nc3ccc(N4CCN(CC(=O)NCCOc5cccc6c5C(=O)N(C5CCC(=O)NC5=O)C6=O)CC4)cc3OC)ncc2C(F)(F)F)c1` (configuration not stated), the IC50 in assay [1] is 7.34 µM; in assay [2], above 100 µM; in assay [3], 9.31 µM.

Turning to `C=CC(=O)Nc1cccc(Nc2nc(Nc3ccc(N4CCN(CC(=O)NCCCCCCNc5cccc6c5C(=O)N(C5CCC(=O)NC5=O)C6=O)CC4)cc3OC)ncc2C(F)(F)F)c1` (configuration not stated), the IC50 is 3.28 µM in assay [1], above 100 µM in assay [2] and 4.14 µM in assay [3].

For the compound `C=CC(=O)Nc1cccc(Nc2nc(Nc3ccc(N4CCN(CC(=O)NCCCNC(=O)CNc5cccc6c5C(=O)N(C5CCC(=O)NC5=O)C6=O)CC4)cc3OC)ncc2C(F)(F)F)c1` (configuration not stated), the concentration for half-maximal inhibition (IC50) was 7.67 µM in assay [1], above 100 µM in assay [2] and 7.35 µM in assay [3].

As to `C=CC(=O)Nc1cccc(Nc2nc(Nc3ccc(N4CCN(C(C)=O)CC4)cc3OC)ncc2C(F)(F)F)c1` [ROCILETINIB], the IC50 in assay [1] was found to be 0.27 µM; in assay [2], 7.57 µM; in assay [3], 0.13 µM.

As to `C=CC(=O)Nc1cccc(Nc2nc(Nc3ccc(N4CCN(CC(=O)NCCCCCNc5cccc6c5C(=O)N(C5CCC(=O)NC5=O)C6=O)CC4)cc3OC)ncc2C(F)(F)F)c1` (configuration not stated), the IC50 is 3.43 µM in assay [1], above 100 µM in assay [2] and 0.52 µM in assay [3].

For `C=CC(=O)Nc1cccc(Nc2nc(Nc3ccc(N4CCN(CC(=O)NCCCNc5cccc6c5C(=O)N(C5CCC(=O)NC5=O)C6=O)CC4)cc3OC)ncc2C(F)(F)F)c1` (configuration not stated), the IC50 in assay [1] was 2.58 µM; in assay [2], above 100 µM; in assay [3] it was 5.76 µM.

For the compound `C=CC(=O)Nc1cccc(Nc2nc(Nc3ccc(N4CCN(C(=O)CCCCCCC(=O)Nc5cccc6c5C(=O)N(C5CCC(=O)NC5=O)C6=O)CC4)cc3OC)ncc2C(F)(F)F)c1` (configuration not stated), the figures for the IC50 in assay [1], in assay [2] and in assay [3] were 2.55 µM, above 100 µM and 5.02 µM, respectively.

Regarding `C=CC(=O)Nc1cccc(Nc2nc(Nc3ccc(N4CCN(CC(=O)NCCNC(=O)CNc5cccc6c5C(=O)N(C5CCC(=O)NC5=O)C6=O)CC4)cc3OC)ncc2C(F)(F)F)c1` (configuration not stated), the figures for the IC50 in assay [1], in assay [2] and in assay [3] were 13.4 µM, above 100 µM and 8.89 µM, respectively.

As to `C=CC(=O)Nc1cccc(Nc2nc(Nc3ccc(N4CCN(C(=O)CCCCCCCCCC(=O)Nc5cccc6c5C(=O)N(C5CCC(=O)NC5=O)C6=O)CC4)cc3OC)ncc2C(F)(F)F)c1` (configuration not stated), the figures for the IC50 in assay [1], in assay [2] and in assay [3] were 3.69 µM, above 100 µM and 2.81 µM, respectively.

Consider `C=CC(=O)Nc1cccc(Nc2nc(Nc3ccc(N4CCN(C(=O)CCCCCCCC(=O)Nc5cccc6c5C(=O)N(C5CCC(=O)NC5=O)C6=O)CC4)cc3OC)ncc2C(F)(F)F)c1` (configuration not stated), for which the IC50 in assay [1] is 5.31 µM; in assay [2] it was above 100 µM; in assay [3], 1.53 µM.

With `C=CC(=O)Nc1cccc(Nc2nc(Nc3ccc(N4CCN(CC(=O)NCCNc5ccc6c(c5)C(=O)N(C5CCC(=O)NC5=O)C6=O)CC4)cc3OC)ncc2C(F)(F)F)c1` (configuration not stated), the IC50 in assay [1] is 3.51 µM; in assay [2], above 100 µM; in assay [3], 4.72 µM.

For `C=CC(=O)Nc1cccc(Nc2nc(Nc3ccc(N4CCN(CC(=O)NCCCCCNC(=O)CNc5cccc6c5C(=O)N(C5CCC(=O)NC5=O)C6=O)CC4)cc3OC)ncc2C(F)(F)F)c1` (configuration not stated), the IC50 in assay [1] is 14.4 µM; in assay [2], above 100 µM; in assay [3], 12.8 µM.

Regarding `C=CC(=O)Nc1cccc(Nc2nc(Nc3ccc(N4CCN(C(=O)CCCCCCCCC(=O)Nc5cccc6c5C(=O)N(C5CCC(=O)NC5=O)C6=O)CC4)cc3OC)ncc2C(F)(F)F)c1` (configuration not stated), the IC50 in assay [1] was 26.7 µM; in assay [2], above 100 µM; in assay [3] it was 17 µM.

Broadly, the IC50 is the concentration that gives 50% inhibition.
